The source of these data is patent US20190216779A1, “USE OF NEUROKININ-1 ANTAGONISTS TO TREAT A VARIETY OF PRURITIC CONDITIONS” (MENLO THERAPEUTICS INC., priority 2016, published 2019).

The conditions of series [1]: cited from earlier work.
Series [2] is described as follows: In vitro skin permeation of serlopitant in topical formulations, Franz diffusion cell. The series is classed as in vitro ADME. Conditions: topical formulations B and C, human skin, 37° C., LC-MS/MS. Here is the method: In vitro skin permeation of serlopitant in topical formulations A-D was evaluated using a Franz diffusion cell. FIG. 1 illustrates a Franz diffusion cell. A Franz diffusion cell having a circular permeation area of 4.15 cm^2 and a receptor chamber volume of 19 mL was set up with a thermo-regulated outer water jacket to maintain the temperature at 37° C. The receptor chamber was filled with 19 mL 1×PBS (pH 7.5) containing 10% ethanol and 1% Tween® 80.
Human skin was pre-treated to remove all subcutaneous fat and was cleaned with 70% ethanol before use. The skin was visually inspected to ensure that it was free of any surface irregularity or small holes and was equally divided into four pieces. The skin was then mounted onto the receptor chamber with the stratum corneum side facing up. […]
All samples were processed by solid-phase extraction (SPE) before LC-MS/MS analysis. […] Serlopitant concentrations in samples resulting from formulations A-D were determined by comparison to the standard. Serlopitant was not detected in samples resulting from topical formulations A and D, as expected. […] After an initial lag, serlopitant was detected by LC-MS/MS in the receptor chamber at 6 hours.
The amount of serlopitant retained in the skin was determined at the end of the experiment. […] Extracted serlopitant was quantified by LC-MS/MS. […]

Series [3] is described as follows: Solubility test of serlopitant in Franz cell receptor solution. The series is classed as physicochemical.
For series [4], the system named is subjects with chronic pruritus and prurigo nodularis. The series is described as follows: Phase II randomized, double-blind, placebo-controlled clinical study of serlopitant in chronic pruritus due to prurigo nodularis. The series is classed as in vivo, human. As to conditions: for Mean difference Serlopitant − Placebo (SE) in change of average itch VAS score from baseline by repeated measures analysis: 5 mg once daily oral, 10 cm VAS. The protocol: A well-controlled human clinical trial assessing the efficacy of serlopitant in the treatment of pruritus associated with prurigo nodularis (PN) was approved by an Institutional Review Board and was conducted in accordance with the ICH Guidelines for Good Clinical Practices. German regulations on recordkeeping of subject information, and any local regulatory requirements. The study was a Phase II randomized, double-blind, placebo-controlled, multicenter trial designed to evaluate the efficacy and safety of serlopitant versus placebo in subjects with PN. […] The subjects had chronic pruritus due to PN.
Subjects were randomized to receive either a 5-mg tablet of serlopitant or a matching placebo tablet. Subjects took a tablet of serlopitant or placebo once daily by mouth for 8 weeks following a loading dose of 3 tablets on the first day of treatment. The maximum study duration for each subject was about 14 weeks and included a screening period of up to 4 weeks, a treatment period of 8 weeks, and a follow-up period of 2 weeks.
At Baseline, the average itch VAS score (average itch over the past 24 hours) for the serlopitant group and the placebo group was 7.88 and 7.92, respectively. […] Furthermore, a once-daily 5 mg dose of serlopitant led to a 4-point responder rate (the proportion of subjects achieving ≥4-point improvement on a 10-point scale) of 54% with respect to the average itch VAS score at Week 8 compared to 25% for placebo.

For series [5], the system named is subjects with chronic pruritus. The series can be described thus: Phase II randomized, double-blind, placebo-controlled clinical study of serlopitant in chronic pruritus. As to conditions: for 4-point responder rate (proportion of subjects achieving ≥4-point improvement on a 10-point scale) in the average VAS itch score: Week 6, placebo 26%; for relief of itch in the NRS score compared to placebo (secondary efficacy endpoint; data not shown) / relief of itch in the VAS score compared to placebo (primary efficacy endpoint): Weeks 4, 5 and 6. The series is classed as in vivo, human. Here is the method: A well-controlled human clinical trial assessing the efficacy of serlopitant in the treatment of chronic pruritus was approved by an Institutional Review Board and was conducted in accordance with the International Conference on Harmonisation (ICH) Guidelines for Good Clinical Practices, the U.S. Code of Federal Regulations, the Health Insurance Portability and Accountability Act (HIPAA), and any local regulatory requirements. The study was a Phase II randomized, double-blind, parallel-group, placebo-controlled, multicenter trial designed to evaluate the efficacy and safety of serlopitant versus placebo in subjects with chronic pruritus.
Subjects were randomized to receive a 0.25 mg, 1 mg or 5 mg tablet of serlopitant or a matching placebo tablet. Subjects took one tablet of serlopitant or placebo once daily by mouth for a total of 6 weeks following a loading dose of 3 tablets on the first day of treatment. The maximum study duration for each subject was about 12 weeks and included a screening period of up to 2 weeks, a treatment period of 6 weeks, and a follow-up period of 4 weeks. The screening period was extended up to 44 days if a washout period from any prohibited medications was required.

The mark [6] stands for this setting: all three doses (0.25 mg, 1 mg, 5 mg once daily, 6 weeks).

As for `C[C@@H](O[C@H]1CC[C@@H]2CN(C3=CC(=O)CC3)C[C@H]2[C@@H]1c1ccc(F)cc1)c1cc(C(F)(F)F)cc(C(F)(F)F)c1` [Form I], in series [1] (Form I compared with Form II), the “thermodynamic stability of polymorph” value is “thermodynamically more stable below 70 °C”. Besides, in series [1] (all tested relative humidity conditions), the hygroscopicity result is listed as “non-hygroscopic”.
For `C[C@@H](O[C@H]1CC[C@@H]2CN(C3=CC(=O)CC3)C[C@H]2[C@@H]1c1ccc(F)cc1)c1cc(C(F)(F)F)cc(C(F)(F)F)c1` [serlopitant, 3-[(3aR,4R,5S,7aS)-5-[(1R)-1-[3,5-bis(trifluoromethyl)phenyl]ethoxy]-4-(4-fluorophenyl)octahydro-2H-isoindol-2-yl]cyclopent-2-en-1-one], in series [2], the “time at which serlopitant was detected in the receptor chamber after an initial lag” value came out at 6 h. Also, the “solubility in receptor solution” value in series [3] (1×PBS (pH 7.5) containing 10% ethanol and 1% Tween 80, 1 hour of incubation at 37° C.) was “remained soluble at concentrations of 0.5, 5 and 50 ug/mL”. Further, in series [3] (receptor solution without Tween 80), the “change of solubility if Tween 80 was not used” value is reported as “decreased significantly”. Besides, the “change of solubility if ethanol was not used” value in series [3] (receptor solution without ethanol) is on record as “decreased slightly”. Further, the “Mean difference Serlopitant − Placebo (SE) in change of average itch VAS score from baseline by repeated measures analysis” value in series [4] (Week 2, 95% CI (−1.5, −0.2), p 0.0111) is on record as −0.9 (0.34); in series [4] (Week 4, 95% CI (−1.8, −0.1), p 0.0248) it was −1.0 (0.43); in series [4] (Week 8, 95% CI (−2.6, −0.7), p 0.0005) it was −1.7 (0.47). For the same compound, the “adverse event diarrhea (most common adverse events)” value in series [4] (5 mg once daily, 8 weeks) was 11%. Further, in series [4] (5 mg once daily, 8 weeks), the “adverse event nasopharyngitis (most common adverse events)” value stood at 17%. Moreover, the “intensity of treatment-emergent adverse events” value in series [4] (5 mg once daily, 8 weeks) was “generally mild or moderate”. The tolerability and safety entry in series [4] (5 mg once daily, 8 weeks) is “well tolerated and safe”. In series [4] (once-daily 5 mg dose), the “improvement in pruritus on the IGA vs placebo” value is “greater improvement”. Moreover, the “4-point responder rate with respect to the average itch VAS score” value in series [4] (once-daily 5 mg dose, Week 8, placebo 25%) was determined as 54%. Moreover, the “4-point responder rate with respect to the worst itch NRS score” value in series [4] (once-daily 5 mg dose, Week 8, placebo 26%) came to 47%. Moreover, in series [4] (once-daily 5 mg dose, Week 8, placebo 28.9%), the “proportion of subjects reporting “no/mild pruritus” on the VRS” value amounted to 54.4%. Moreover, in series [4] (once-daily 5 mg dose, Week 8, placebo 54.3%), the “proportion of subjects reporting improvement in pruritus on the PGA” value stood at 82.5%. The “decrease in the average itch VAS score from Baseline compared to placebo” value in series [4] (once-daily 5 mg dose, Weeks 2, 4, and 8) is listed as “statistically significant decrease”. For the same compound, in series [4] (once-daily 5 mg dose, p=0.0024), the “improvement in the worst itch VAS score from Baseline to Week 8 vs placebo” value was “statistically significantly, greater improvement”. For the same compound, in series [4] (once-daily 5 mg dose, p=0.0069), the “decrease in the average itch NRS score from Baseline to Week 8 vs placebo” value was “statistically significantly greater decrease”. In addition, the “Least squares mean % change from baseline in average VAS itch score” value (shortened to “Least squares mean % change”) in series [5] (0.25 mg once daily oral, Week 1, n = 64) is −9.1 ± 3.9%; in series [5] (0.25 mg once daily oral, Week 2, n = 64), −14.9 ± 4.0%; in series [5] (0.25 mg once daily oral, Week 3, n = 64) it was −21.4 ± 4.0%; in series [5] (0.25 mg once daily oral, Week 4, n = 64), −29.0 ± 4.0%; in series [5] (0.25 mg once daily oral, Week 5, n = 64), −32.4 ± 4.0%; in series [5] (0.25 mg once daily oral, Week 6, n = 64), −34.1 ± 4.1%. For the same compound, the “Least squares mean % change” value is recorded as −11.8 ± 3.9% in series [5] (1 mg once daily oral, Week 1, n = 65); −22.0 ± 4.0% in series [5] (1 mg once daily oral, Week 2, n = 65); −30.2 ± 4.0% in series [5] (1 mg once daily oral, Week 3, n = 65); −33.1 ± 4.0 % in series [5] (1 mg once daily oral, Week 4, n = 65, p < 0.05 vs placebo); −38.0 ± 4.1 % in series [5] (1 mg once daily oral, Week 5, n = 65, p < 0.05 vs placebo); −41.4 ± 4.0 % in series [5] (1 mg once daily oral, Week 6, n = 65, p < 0.05 vs placebo). For the same compound, the “Least squares mean % change” value in series [5] (5 mg once daily oral, Week 1, n = 64) is given as −12.0 ± 3.9%; in series [5] (5 mg once daily oral, Week 2, n = 64), −20.3 ± 4.0%; in series [5] (5 mg once daily oral, Week 3, n = 64) it was −28.8 ± 4.0%; in series [5] (5 mg once daily oral, Week 4, n = 64, p < 0.05 vs placebo) it was −34.2 ± 4.0 %; in series [5] (5 mg once daily oral, Week 5, n = 64, p < 0.05 vs placebo), −37.3 ± 4.0 %; in series [5] (5 mg once daily oral, Week 6, n = 64, p < 0.05 vs placebo) it was −42.5 ± 4.1 %. In addition, the “intensity of all adverse events” value in series [5] (setting [6]) is “mild or moderate intensity”. The “most common treatment-emergent adverse events” value in series [5] (setting [6]) was “diarrhea, somnolence and headache in the low single-digit percent”. For the same compound, the “tolerability and safety profile” value in series [5] (setting [6]) was “well tolerated and exhibited an excellent safety profile”. Further, the “4-point responder rate (proportion of subjects achieving ≥4-point improvement on a 10-point scale) in the average VAS itch score” value in series [5] (once-daily 1 mg dose) was 42%; in series [5] (once-daily 5 mg dose), 53%. Further, the “relief of itch in the NRS score compared to placebo (secondary efficacy endpoint; data not shown)” value in series [5] (once-daily 1 mg dose) and in series [5] (once-daily 5 mg dose) was “statistically significant improvement in relief of itch” throughout. The “relief of itch in the VAS score compared to placebo (primary efficacy endpoint)” value in series [5] (once-daily 1 mg dose) and in series [5] (once-daily 5 mg dose) was “statistically significant improvement in relief of itch” throughout.
